Here are results for 3 compounds from publication PMC6150295, “Synthesis and Biological Evaluation of 2H-Indazole Derivatives: Towards Antimicrobial and Anti-Inflammatory Dual Agents” (Molecules : A Journal of Synthetic Chemistry and Natural …, 2017).

≈ marks a conversion by molar mass, not a printed value. Where two headings read alike, the source gives them in different places.

Series [1] relates to Giardia intestinalis isolate IMSS:0981:1. As to the kind of experiment: In vitro antiprotozoal assay (trophozoite subculture method). In kind it is cell-based. The settings on record: for IC50: Giardia duodenalis, trophozoites, 48 h with compound then 48 h subculture without drug, read-out: IC50 (µM) G. intestinalis. How it is done: (§1) The in vitro antiprotozoal assays against E. histolytica, G. intestinalis, and T. vaginalis of the 2-phenyl-2H-indazole and 2,3-diphenyl-2H-indazole derivatives were carried out following the method previously described. Metronidazole (MTZ) and albendazole (ABZ) were used as reference drugs. […] Similarly, compound 7, having a phenyl at position 2, has good activity against the three protozoa, ranking third in activity for T. vaginalis and forth against G. intestinalis and E. histolytica. […] These derivatives had groups H, COOCH3, Cl, and SO2CH3 at positions 2 and 3, substituents that induced the best response in 2-phenyl-2H-indazole derivatives. In addition, carboxylic acids 20 and 25 were of interest for comparative purposes with ester derivatives.
(§2) Trichomonas vaginalis strain GT3, Giardia intestinalis isolate IMSS:0981:1, and Entamoeba histolytica strain HM1-IMSS were used. Trophozoites of G. intestinalis were maintained in a TYI-S-33 medium supplemented with 10% calf serum and bovine bile. E. histolytica and T. vaginalis trophozoites were maintained in TYI-S-33 medium supplemented with 10% bovine serum. Briefly, 5 × 10^4 trophozoites of G. intestinalis or T. vaginalis, or 6 × 10^3 trophozoites of E. histolytica were incubated for 48 h at 37 °C with different concentrations of the compound to be tested, each added as solutions in DMSO. As a negative control, parasite cultures received an equivalent amount of DMSO only, while albendazole and metronidazole were included as positive controls. At the end of the treatment period, the cells were washed and subcultured for another 48 h in a fresh medium to which no drug was added. […] Experiments were carried out in triplicate and repeated at least twice.

Series [2] has as its system Trichomonas vaginalis strain GT3. The series is described as above. In kind it is cell-based. The note with it: for IC50: Trichomonas vaginalis, GT3, trophozoites, 48 h with compound then 48 h subculture without drug, read-out: IC50 (µM) T. vaginalis. How it is done: as §1, §2
The test system of series [3] is Entamoeba histolytica strain HM1-IMSS. The series is described as above. In kind it is cell-based. The note with it: Entamoeba histolytica; trophozoites, 48 h with compound then 48 h subculture without drug; read-out: IC50 (µM) E. histolytica. How it is done:
as §1, §2

The test system of the next series is Candida glabrata. Kind of series: Disk diffusion susceptibility test. In kind it is cell-based. The note with it: for Inhibition (positive / none) C. glabrata: 5 mg per disc, 37 °C, 24 h; for zone of inhibition at 5000 µg/disc: Nakaseomyces glabratus, read-out: Zone of inhibition at 5 mg per disc (mm) C. glabrata. In general terms: Agar diffusion results depend on both activity and mobility in agar.

The test system of the next series is Candida albicans. As to the kind of experiment: Disk diffusion susceptibility test. In kind it is cell-based. The settings on record: for Inhibition (positive / none) C. albicans: 5 mg per disc, 37 °C, 24 h; for zone of inhibition at 5000 µg/disc: Candida albicans, read-out: Zone of inhibition at 5 mg per disc (mm) C. albicans.
The subject of series [4] is Escherichia coli strain EDL933 (EHEC). Kind of series: Disk diffusion susceptibility test. The format is cell-based. The settings on record: 5 mg per disc, 37 °C, 24 h.
The target of series [5] is T1, human recombinant cyclooxygenase-2 (Homo sapiens, UniProt P35354).
T1 construct: purchased Cayman Chemical 560131
T1 sequence (P35354 18-604): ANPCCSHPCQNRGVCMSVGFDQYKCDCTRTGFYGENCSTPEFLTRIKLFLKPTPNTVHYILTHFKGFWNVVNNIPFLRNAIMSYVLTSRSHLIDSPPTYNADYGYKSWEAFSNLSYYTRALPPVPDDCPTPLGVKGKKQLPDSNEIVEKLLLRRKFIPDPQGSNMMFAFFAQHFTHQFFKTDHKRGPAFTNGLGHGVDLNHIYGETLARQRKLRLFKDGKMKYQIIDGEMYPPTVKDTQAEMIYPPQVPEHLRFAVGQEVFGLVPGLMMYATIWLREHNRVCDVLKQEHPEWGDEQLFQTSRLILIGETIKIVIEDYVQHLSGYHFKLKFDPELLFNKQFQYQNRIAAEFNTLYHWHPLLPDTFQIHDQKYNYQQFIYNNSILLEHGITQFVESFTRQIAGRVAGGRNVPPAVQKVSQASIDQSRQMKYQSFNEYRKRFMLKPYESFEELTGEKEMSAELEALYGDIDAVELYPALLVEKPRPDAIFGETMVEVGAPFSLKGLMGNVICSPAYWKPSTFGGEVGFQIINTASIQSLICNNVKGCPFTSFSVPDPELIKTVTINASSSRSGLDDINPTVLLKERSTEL
As to the kind of experiment: COX inhibitor screening assay (Cayman kit). The format is biochemical. The settings on record: tested at 10 µM. On the procedure:
Additionally, molecular docking studies using AutoDock Vina software (TSRI, La Jolla, CA, USA) were performed to aid in the interpretation of the experimental results. […] Nevertheless, these compounds represent an interesting starting point towards the design of new antiparasitic compounds with an additional COX-2 inhibitory property.
Assays were carried out by duplicate following the instructions provided by the manufacturer.

In another series the test system is HeLa cells. As to the kind of experiment: Cytotoxicity MTT assay. The format is cell-based, human. The note with it: Homo sapiens, 48 h exposure. On the procedure: (§3) Biological assays on HaCaT and HeLa cell lines were conducted to gain insight into the cytotoxic effects of these derivatives on human cells, as compared with the effects observed on protozoa. Cellular viability was determined by MTT (3-(4,5-dimethylthiazol-2-yl)-2,5-diphenyltetrazolium bromide) assay. Compounds 18 and 23 were chosen considering their antiprotozoal and anticandidal effect, in addition to their COX-2 inhibitory activity. Additionally, compound 16 was considered as an unsubstituted reference.
(§4) HeLa (human cervical carcinoma) and HaCaT (immortalized human keratinocytes) cells were grown in DMEM (Invitrogen Corporation, Carlsbad, CA, USA) supplemented with 10% FBS (BioWest, Riverside, MO, USA), and maintained in standard culture conditions (37 °C, 95% humidity, and 5% CO2). Cells were allowed to grow to a density of 80% and then were harvested using sterile PBS/EDTA (pH 7.4) before starting every experiment. Cells were seeded in 96-well plates (7000 cells/well in 200 µL of DMEM). After 24 h the cells were exposed to test compounds dissolved in DMSO (J.T. Baker, Phillipsburg, NJ, USA) at different concentrations and diluted in 50 µL of DMEM, to reach 250 µL in the well. The exposure time was 48 h, and then viability was determined by MTT assay. The absorbance of formazan was determined for each well and its viability was related to the vehicle (100%). The IC50 was calculated from dose-response curve by non-linear fit using OriginPro 7.0 software (RockWare, Golden, CO, USA).
On the technique in general: Formazan colour is commonly taken as a measure of viable cells.

In a further series the test system is HaCaT cells. Kind of series: Cytotoxicity MTT assay. The format is cell-based, human. The note with it: Homo sapiens, HaCaT, 48 h exposure. How it is done:
as §3, §4

The nature of a further series: Cytotoxicity MTT assay. The note with it: human, 10 µM, 48 h exposure. In kind it is cell-based, human. How it is done:
as §3, §4

Series [6] has as its system Escherichia coli strain 042 (EAEC). As to the kind of experiment: Disk diffusion susceptibility test. The note with it: 5 mg per disc, 37 °C, 24 h. The format is cell-based.
Series [7] has as its system Salmonella enterica serovar Typhi. As to the kind of experiment: Disk diffusion susceptibility test. The format is cell-based. The note with it: 5 mg per disc, 37 °C, 24 h.
The next series has as its system C. glabrata. As to the kind of experiment: Minimum inhibitory concentration (antimycotic effect). In kind it is cell-based, Candida glabrata. The settings on record: Nakaseomyces glabratus.
In another series the test system is C. albicans. The series is described as above. In kind it is cell-based. The note with it: Candida albicans.
The mark [8] stands for this setting: 16 relative to 7, 20 compared to 13.
[9] abbreviates: read-out: % Viability (10 µM) HaCaT Cells.
Setting [10] is: read-out: % Viability (10 µM) HeLa Cells.

`c1ccc(-c2c3ccccc3nn2-c2ccccc2)cc1` [Compound 16, 2,3-Diphenyl-2H-indazole] came in with a melting point of 107.4 to 107.9 °C. Moreover, in [1] (setting [8]), the “improvement in potency against G. intestinalis relative to the analog” value is recorded as “two-fold”. Besides, the IC50 in [1] was 0.0518 ± 0.0052 µM. Moreover, the “improvement in potency against T. vaginalis relative to the analog” value in [2] (setting [8]) was “two-fold”. Besides, the IC50 in [2] is 0.0573 ± 0.0026 µM. For the same compound, the IC50 in [3] is 0.303 ± 0.0105 µM. Besides, the “Inhibition (positive / none) C. glabrata” value in the series on Candida glabrata is “-”. Further, the “Inhibition (positive / none) C. albicans” value with Candida albicans is on record as “-”. In addition, in [4], the “Inhibition (positive / none) E. coli 933” value is “-”. The “% of Inhibition of COX-2” value in [5] was “Inactive”. In the series on HeLa cells, this compound showed an IC50 of 125 ± 29.6 µM. Besides, the IC50 in the series on HaCaT cells came to 93.7 ± 17.3 µM. In “Cytotoxicity MTT assay” (setting [9]), the viability at 48 h, 10 µM came to 95 ± 2.44%. For the same compound, the viability at 48 h, 10 µM in “Cytotoxicity MTT assay” (setting [10]) was determined as 93 ± 4.57%. Besides, the “Inhibition (positive / none) E. coli 042” value in series [6] is listed as “-”. Moreover, the “Inhibition (positive / none) S. Typhi” value in series [7] is given as “-”.

Regarding `COC(=O)c1ccc(-n2nc3ccccc3c2-c2ccccc2)cc1` [Compound 18, Methyl 4-(3-phenyl-2H-indazol-2-yl) benzoate], the melting point lay in the range of 152.4 to 154.9 °C. Besides, the IC50 in series [1] was 0.0959 ± 0.0022 µM. The “times more active than metronidazole against G. intestinalis” value in series [1] (ratio of IC50 values) stood at 12.8 times. Moreover, in [2], the IC50 came to 0.102 ± 0.0151 µM. Moreover, in series [3], the IC50 was 0.0502 ± 0.0022 µM. Also, in the series on Candida glabrata, the “Inhibition (positive / none) C. glabrata” value was “+” and the zone of inhibition at 5000 µg/disc came to 3 mm. Besides, in the series on Candida albicans, the “Inhibition (positive / none) C. albicans” value was “+” and the zone of inhibition at 5000 µg/disc worked out at 10 mm. Further, in series [4], the “Inhibition (positive / none) E. coli 933” value was “-”. In the series on C. glabrata, this compound had an MIC of 15.2 mM (≈ 5000 µg/mL). Moreover, the inhibition at 10 µM in series [5] was 50 ± 9.49%. The viability at 48 h, 10 µM in “Cytotoxicity MTT assay” (setting [9]) came out at 96.2 ± 4.14%. Further, the viability at 48 h, 10 µM in the series “Cytotoxicity MTT assay” (setting [10]) came to 94.1 ± 3.31%. The lowest concentration to inhibit growth with C. albicans (MIC) was 3.81 mM (≈ 1250 µg/mL). Also, the “Inhibition (positive / none) E. coli 042” value in [6] was “-”. In addition, the “Inhibition (positive / none) S. Typhi” value in series [7] is “-”.

In the case of `COC(=O)c1ccc(-c2c3ccccc3nn2-c2ccccc2)cc1` [Compound 23, Methyl 4-(2-phenyl-2H-indazol-3-yl) benzoate], the melting point was 164.5 to 166.3 °C. The IC50 in series [1] turned out to be 0.119 ± 0.0086 µM. Further, in series [2], the IC50 came out at 0.143 ± 0.0043 µM. Also, in series [3], the IC50 worked out at 0.0731 ± 0.0086 µM. Also, in the series with Candida glabrata, the “Inhibition (positive / none) C. glabrata” value is on record as “+” and the zone of inhibition at 5000 µg/disc was 4 mm. In the series on Candida albicans, the “Inhibition (positive / none) C. albicans” value is listed as “+” and the zone of inhibition at 5000 µg/disc was determined as 13 mm. Besides, the “Inhibition (positive / none) E. coli 933” value in series [4] is “-”. Further, the MIC against C. glabrata was determined as 15.2 mM (≈ 5000 µg/mL). Further, in series [5], the inhibition at 10 µM is 36.4 ± 1.7%. Further, in “Cytotoxicity MTT assay” (setting [9]), the viability at 48 h, 10 µM stood at 97.8 ± 5.19%. The viability at 48 h, 10 µM in “Cytotoxicity MTT assay” (setting [10]) amounted to 93.7 ± 7.48%. This compound also displayed an MIC against C. albicans of 3.81 mM (≈ 1250 µg/mL). Moreover, the “Inhibition (positive / none) E. coli 042” value in [6] is given as “-”. Also, in series [7], the “Inhibition (positive / none) S. Typhi” value is given as “-”.

Broadly, the IC50 is the concentration at which inhibition is half-maximal. One may read the melting point as the temperature, or range, at which the solid turns liquid. As a reminder, the viability is the share of living cells, or the viability signal relative to a control. As a reminder, the zone of inhibition is the extent of the growth-free halo in a diffusion test. The term MIC denotes the lowest concentration that inhibits growth of the organism. Low values mean greater potency, high ones weaker potency. What is called inhibition is the relative decrease from the control value, in per cent.
